Assay [1] relates to CD55 expression in A549 cells. Description: CRISPR/Cas9 RNP delivery, CD55 knockdown by flow cytometry. Format: cell-based. As to conditions: 3 days, enantiomeric coacervates. The procedure: complexed with lipofectamine 2000 (3.2 µL) served as controls. GFP expression was assessed qualitatively after 96 h using a Lionheart FX automated microscope (BioTek Instruments, Inc.).
We employed TrueCut Cas9 protein for the knockout of CD55 gene using CRISPR technology, aided with chiral (GHGXY)4 peptide coacervates. The transfection of the Cas9 RNPs (protein + gRNA) was done according to manufacturer’s protocol (Invitrogen). Briefly, A549 cells were cultured in complete DMEM media (supplemented with 10% FBS and 5% Pen Strep) in T-75 flask till full confluency. Cells were then plated at a concentration of 2×10^4 cells/mL in 24 well […]
plates in DMEM media for 24 h. […]
confluent. For positive control, we mixed the TrueCutTM Cas9 protein/sgRNA in Opti-MEM media (17.8 μL) at a concentration of 12.50 μg (75 pmol; Stock 0.5 mg/mL) and 2.4 μg (75 pmol; Stock 1 nmol) for protein and sgRNA respectively, containing 50 μL LipofectamineTM Cas 9 PlusTM reagent (Total Volume: 100 μL) in a RNAse -free microcentrifuge tube. […]
(DAF) Antibody (anti-human; miltenyibiotec Cat#130-126-382). […] Data were analyzed with FlowJo version 10. […] was quantified as the percentage CD55+ cells, considering untreated cells as the negative control and Lipofectamine treated ones as the positive control. […]
Background: A flow cytometer gives signals particle by particle.

Assay [2] has as its system BMDCs overlaid with DOBW cells. Description: In vitro antigen presentation assay, MHC class II (BMDCs + DOBW hybridoma, IL-2 ELISA). As to conditions: DOBW overlay; for IL-2 levels at 4 °C compared to 37 °C controls: OVA-loaded coacervates, DCs at 4 °C, ELISA.
Experimental: To test internalization mechanisms, we utilized in vitro antigen presentation assays (Fig. 4A). Here, bone marrow-derived dendritic cells (BMDCs) are treated with coacervates loaded with the model antigen ovalbumin (OVA). […] Secretion of IL-2 in response to peptide-MHC recognition is an indirect measure of coacervate uptake and can be quantified using ELISA (enzyme-linked immunosorbent assay) (Fig. 4A). […] We next used pharmacological inhibitors of endocytic mechanisms to explore mechanisms of cell entry (Fig. 4E). BMDCs were treated with inhibitors of clathrin-mediated endocytosis (chlorpromazine, CPZ),[58] dynamin-dependent endocytosis (dynasore, Dyn),[59] macropinocytosis (wortmannin, Wort),[60] cholesterol (methyl β-CD),[61] and IPA3 the regulatory domain of PAK1 (IPA-3)[62] for one h prior to antigen presentation assays.
Cellular uptake and antigen presentation assays
Uptake of coacervates by BMDCs was measured using in vitro antigen presentation assays.
BMDCs were plated in 96-well round-bottom plates (1×10^5 cells/well) and maintained at 4°C or
treated with 10 mM deoxy glucose and 10 mM sodium azide in PBS (ATP depletion) for 1 h prior
to addition of OVA-loaded coacervates. Final OVA concentration was 1 g/mL for time-
dependent measurements and 10 g/mL for comparison between enantiomers. Cells maintained at
37°C and complete RPMI media served as controls. Soluble OVA and PBS treated cells were used as controls for antigen delivery. Following treatment (2 h, 4 h, 24 h, 48 h, or 72 h), BMDCs were
washed to remove extracellular coacervates and DOBW hybridoma cells (1:5, DC: DOBW) were
overlaid for 16 h. The cells were then centrifuged at 300 × g for 5 min, and the supernatant was
collected for IL-2 quantitation by ELISA according to the manufacturer protocol (Biotechne,
#DY402). The amount of IL-2 produced under each condition was measured.
Inhibition of coacervate uptake was measured by adding the inhibitors 1 h
prior to coacervate treatment for 24 h followed by hybridoma overlay and IL-2 measurements.
The subject of assay [3] is CD8+T cells from OT-I mice on BMDCs. Description: OT-I CD8+ T cell proliferation. The format is cell-based, mouse. As to conditions: BMDCs treated with OVA-loaded coacervates 24 h, CTV-labeled OT-I T cells ~66 h, flow cytometry. The procedure: page 14: parameters across two channels: eGFP and DAPI. […] Cells were incubated at 37°C (protected from light) for 20 min, after which 5× staining volume of EasySep Buffer was added for another 5 min of incubation. The cells were counted again, centrifuged at 300 g for 5 min, resuspended in RPMI-1640 (Gibco 31800- 022) with 10% FBS (R and D Systems […]), 10 mM HEPES (Sigma H0887), 1× MEM NEAA (Gibco 11140-050), 1 mM sodium pyruvate (Gibco 11360-070), 1× pen-strep glutamine (Gibco 10378-016), and 55 μM β-mercaptoethanol (Gibco 21985-023) added fresh, and then plated onto treated BMDCs. The plates were incubated for ~66 h, after which supernatants were collected for Mouse Adaptive Immune CodePlex Secretome analyses (Bruker Cellular Analysis, Inc), and cells were collected for flow cytometry studies. Flow cytometry Total cells from the spleen and lymph nodes of OT-I/OT-II mice were washed with FACS […] staining. […] Data were analyzed with FlowJo version 10. Proliferation was quantified as the percentage of daughter cells out of single, live, CD4+ or CD8+T cells, gated as having a lower CTV fluorescence intensity than the peak of highest fluorescence (undivided). […] Data are expressed as mean ± S.E.M. and statistical analysis was performed using a one-way or two-way ANOVA with Tukey/Sidak's/Dunnett's multiple comparison test. *p ≤ 0.05, **p ≤ 0.01, ***p ≤ 0.001, ****p ≤ 0.0001. […]

Data on two substances can be found in publication PMC11955804, “Histidine-rich enantiomeric peptide coacervates enhance antigen sequestration and presentation to T cells” (Chemical Science, 2025).

As for (GHGLY)4 [GL 20], the “delivery of Cas9 RNP complex / decrease in CD55 expression on the cell surface” value in assay [1] is reported as “not highly effective”. Moreover, in assay [2], the “IL-2 levels at 4 °C compared to 37 °C controls” value was “significantly lower IL-2 levels”.

With (GHGVY)4 [GV 20], in assay [1], the “delivery of Cas9 RNP complex / decrease in CD55 expression on the cell surface” value is recorded as “successfully delivered the RNP complex”. Further, in assay [3], the “CD8+T cell proliferation” value is listed as “higher percentage of proliferated cells”. Moreover, in assay [2], the “IL-2 levels at 4 °C compared to 37 °C controls” value is listed as “significantly lower IL-2 levels”. Besides, the “IL-2 production compared to (GHGLY)4 at the same antigen dose” value in assay [2] (coacervates loaded with 1 μM OVA, pre-treatment 2-72 h) is listed as “significantly higher”.
